Numbers after ± are expanded uncertainties.

As usually defined, the mass density is the mass of a sample divided by its volume.

The conditions of the data set: Crystal; for mass density: 101.33 kPa, X-ray diffraction; for Normal melting temperature: DTA.

In the case of `[F-].[K+]` [potassium fluoride], the Normal melting temperature is 856 ± 10 °C. The mass density (293 K) is on record as 2530 ± 12 kg/m3.
On to `[F-].[F-].[F-].[K+].[Ni+2]` [nickel potassium fluoride (KNiF3)], for which the Normal melting temperature turned out to be 1120 ± 20 °C.
`[F-].[Li+]` [lithium fluoride]: the Normal melting temperature was found to be 845 ± 10 °C. For the same compound, the mass density (293 K) is reported as 2634 ± 2 kg/m3. Moreover, the mass density (473 K) was found to be 2576 ± 12 kg/m3. Moreover, the mass density (573 K) was determined as 2554 ± 11 kg/m3. For the same compound, the mass density (673 K) is listed as 2522 ± 12 kg/m3. Besides, the mass density (773 K) was 2493 ± 13 kg/m3. For the setting “873 K”, the mass density was 2455 ± 12 kg/m3. Further, the mass density (973 K) is reported as 2432 ± 9 kg/m3.
Regarding `[F][Ni][F]` [nickel difluoride], the Normal melting temperature was 1356 ± 10 °C. Further, under “293 K”, the mass density is given as 4808 ± 24 kg/m3.

The values above are taken from the NIST ThermoML archive (doi:10.1016/j.jct.2018.01.023).
